From patent US20260184687A1, “DIHYDROINDENE DERIVATIVES AS MALT1 INHIBITORS” (C4X Discovery Limited, priority 2022, published 2026)

Legend:
[1] = molecular target: MALT1-GS-Ub (6-His-hMALT-1 residues 339-715 fused to ubiquitin) (Homo sapiens, UniProt Q9UDY8); assay: biochemical;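 further: in vitro MALT1 protease assay: enzyme preincubated with compound 30 min at room temperature, then cleavage of fluorogenic Ac-LVSR-AMC substrate (100 µM) followed by fluorescence every 15 min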
[2] = molecular target: T1, FL hMALT1 enzyme (Homo sapiens, UniProt Q9UDY8); assay: biochemical;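 further: Cell-free protease assay: enzyme preincubated with compound 30 min at room temperature, then cleavage of fluorogenic Ac-LVSR-AMC substrate (100 µM) tracked by fluorescence (ex 360/em 460 nm)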
T1 sequence (Q9UDY8 1-824): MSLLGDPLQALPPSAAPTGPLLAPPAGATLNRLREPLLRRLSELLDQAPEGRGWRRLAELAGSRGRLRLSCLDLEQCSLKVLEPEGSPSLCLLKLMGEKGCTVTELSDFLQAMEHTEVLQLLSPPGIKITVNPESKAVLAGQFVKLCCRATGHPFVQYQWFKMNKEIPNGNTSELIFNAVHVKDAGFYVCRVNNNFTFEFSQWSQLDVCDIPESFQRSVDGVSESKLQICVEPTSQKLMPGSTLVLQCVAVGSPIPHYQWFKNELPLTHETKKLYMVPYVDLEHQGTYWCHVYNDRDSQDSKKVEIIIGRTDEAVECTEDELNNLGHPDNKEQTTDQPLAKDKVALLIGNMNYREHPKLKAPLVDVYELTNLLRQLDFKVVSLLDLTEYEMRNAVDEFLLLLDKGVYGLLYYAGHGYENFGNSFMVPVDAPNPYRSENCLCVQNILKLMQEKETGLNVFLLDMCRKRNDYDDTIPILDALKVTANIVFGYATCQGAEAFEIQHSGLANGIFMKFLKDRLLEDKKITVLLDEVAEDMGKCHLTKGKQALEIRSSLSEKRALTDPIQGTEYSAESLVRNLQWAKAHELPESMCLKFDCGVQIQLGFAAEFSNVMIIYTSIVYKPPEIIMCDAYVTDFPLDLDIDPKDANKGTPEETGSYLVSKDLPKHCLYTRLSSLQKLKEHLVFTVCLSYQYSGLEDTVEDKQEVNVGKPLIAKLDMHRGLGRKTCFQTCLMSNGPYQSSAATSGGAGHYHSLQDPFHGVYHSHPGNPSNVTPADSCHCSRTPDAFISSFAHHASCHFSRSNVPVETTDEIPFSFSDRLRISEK
Method: MALT1 protease activity was assessed in vitro by measuring the cleavage of a fluorogenic tetrapeptide substrate.
For a higher sensitivity assay, commercially available FL hMALT1 enzyme (Abcam, 1-10 nM) was incubated with substrate (Ac-LVSR-AMC, 100 μM) in reaction buffer comprising 50 mM HEPES (pH7.0), 25 mM KCl, 0.1% (v/v) CHAPS, 1 mM TCEP and 0.7 M sodium citrate.
Test compounds dissolved in DMSO were dispensed into assay plates (384-well, black, shallow ProxiPlates). 7 μl enzyme solution was added and incubated at room temperature for 30 minutes to allow compound binding to occur. 2 μl substrate solution was then added and the fluorescence (excitation 360 nm, emission 460 nm) read every 15 minutes using a suitable plate reader. Final assay DMSO concentration was 1%. […] IC50 values were calculated using GraphPad Prism using a 4-parameter non-linear regression curve fit.

[3] = system: IL-2 release from stimulated Jurkat cells; assay: Human IL-2 Release Phenotypic Assay (Assay 3); assay type: cell-based; conditions: Jurkat cells (clone E6-1), 200 ng/mL PMA + 300 ng/mL ionomycin, IL-2 by ELISA
How it was run: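 IC50 values were fitted by 4-parameter non-linear regression to IL-2 release from Jurkat E6-1 cells. Those cells were stimulated for 48 h with PMA (200 ng/mL) plus ionomycin (300 ng/mL) after a 30-min compound pre-incubation at half-log doses in 0.5% DMSO. Cells had been plated at 50 000/well overnight at 37° C.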

Chain of MALT1-GS-Ub (6-His-hMALT-1 residues 339-715 fused to ubiquitin) (Q9UDY8 with tags, fused parts or gaps limits assumed): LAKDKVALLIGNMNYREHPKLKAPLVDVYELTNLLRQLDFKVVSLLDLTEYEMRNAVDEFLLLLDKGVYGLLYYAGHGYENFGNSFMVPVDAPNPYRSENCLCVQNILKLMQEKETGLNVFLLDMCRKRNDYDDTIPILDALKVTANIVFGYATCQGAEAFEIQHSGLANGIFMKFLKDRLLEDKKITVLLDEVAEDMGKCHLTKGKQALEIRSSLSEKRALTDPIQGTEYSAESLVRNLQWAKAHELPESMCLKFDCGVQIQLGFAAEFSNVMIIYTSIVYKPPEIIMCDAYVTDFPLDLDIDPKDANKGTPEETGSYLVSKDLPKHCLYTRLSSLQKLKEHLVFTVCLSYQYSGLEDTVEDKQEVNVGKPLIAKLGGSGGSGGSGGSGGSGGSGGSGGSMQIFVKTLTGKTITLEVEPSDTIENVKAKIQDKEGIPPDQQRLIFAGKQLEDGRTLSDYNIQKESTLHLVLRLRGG

CN(C(=O)c1cnon1)[C@@H](c1ccc(NC2Cc3ccccc3C2(C)C)cc1)C(F)(F)F (single isomer, unassigned) [Example 51]
IC50 [1]: 930 nM

CN(C(=O)C1CNC1)C(c1ccc(NC2Cc3ccccc3C2(C)C)cn1)C(F)(F)F (single isomer, unassigned) [Example 83, N-(1-(5-((1,1-Dimethyl-2,3-dihydro-1H-inden-2-yl)amino)pyridin-2-yl)-2,2,2-trifluoroethyl)-N-methylazetidine-3-carboxamide]
IC50 [1]: 16000 nM | IC50 [2]: > 3000 nM

CN(C(=O)C1CNC1)C(c1ccc(NC2Cc3ccccc3C2(C)C)cn1)C(F)(F)F (single isomer, unassigned) [Example 86, N-(1-(5-((1,1-Dimethyl-2,3-dihydro-1H-inden-2-yl)amino)pyridin-2-yl)-2,2,2-trifluoroethyl)-N-methylazetidine-3-carboxamide]
IC50 [1]: 11000 nM | IC50 [2]: > 3000 nM

CN(C(=O)C1CCS(=O)(=O)CC1)[C@@H](c1ccc(NC2Cc3ccc(Cl)c(F)c3C2)nc1)C(F)(F)F (single isomer, unassigned) [Example 332]
IC50 ([3]; Homo sapiens, Jurkat, 48 h): 47 nM | IC50 [2]: 14 nM

CNC(=O)N1CC(C(=O)N(C)[C@@H](c2ccc(NC3Cc4ccc(Cl)c(Cl)c4C3)cn2)C(F)(F)F)C1 (single isomer, unassigned) [Example 335]
IC50 ([3]; Homo sapiens, Jurkat, 48 h): 42 nM | IC50 [2]: 14 nM

CN(C(=O)[C@H]1CCC(=O)NC1)[C@@H](c1ccc(NC2Cc3ccc(Cl)c(F)c3C2)cn1)C(F)(F)F (single isomer, unassigned) [Example 337]
IC50 ([3]; Homo sapiens, Jurkat, 48 h): 170 nM | IC50 [2]: 51 nM

CN(C(=O)[C@H]1CNC(=O)C1)[C@@H](c1ccc(NC2Cc3ccc(Cl)c(F)c3C2)nc1)C(F)(F)F (single isomer, unassigned) [Example 339]
IC50 ([3]; Homo sapiens, Jurkat, 48 h): 66 nM | IC50 [2]: 24 nM

CN(C(=O)C1CC2(CCC(=O)N2)C1)[C@@H](c1ccc(NC2Cc3ccc(Cl)c(Cl)c3C2)cn1)C(F)(F)F (single isomer, unassigned) [Example 341]
IC50 ([3]; 48 hours): 100 nM | IC50 [2]: 15 nM

CN(C(=O)C1CC2(CCC(=O)N2)C1)[C@@H](c1ccc(NC2Cc3ccc(Cl)c(Cl)c3C2)cn1)C(F)(F)F (single isomer, unassigned) [Example 343]
IC50 ([3]; 48 hours): 360 nM | IC50 [2]: 77 nM

CN(C(=O)[C@H]1CNC(=O)C1)[C@@H](c1ccc(NC2Cc3ccc(Cl)c(Cl)c3C2)nc1)C(F)(F)F (single isomer, unassigned) [Example 347]
IC50 ([3]; Homo sapiens, Jurkat, 48 h): 41 nM | IC50 [2]: 16 nM

CN(C(=O)CC#N)[C@@H](c1ccc(NC2Cc3ccc(Cl)c(Cl)c3C2)cn1)C(F)(F)F (single isomer, unassigned) [Example 350]
IC50 ([3]; Homo sapiens, Jurkat, 48 h): 230 nM | IC50 [2]: 61 nM

CN(C(=O)C1CN(C(=O)C2CCOC2)C1)[C@@H](c1ccc(NC2Cc3ccc(Cl)c(Cl)c3C2)cn1)C(F)(F)F (single isomer, unassigned) [Example 352]
IC50 ([3]; Homo sapiens, Jurkat, 48 h): 110 nM | IC50 [2]: 46 nM

CN(C(=O)C1CN(C(=O)C2CCOC2)C1)[C@@H](c1ccc(NC2Cc3ccc(Cl)c(Cl)c3C2)cn1)C(F)(F)F (single isomer, unassigned) [Example 353]
IC50 ([3]; 48 hours): 63 nM | IC50 [2]: 33 nM

CN(C(=O)C1CCS(=O)(=O)C1)[C@@H](c1ccc(NC2Cc3ccc(Cl)c(Cl)c3C2)cn1)C(F)(F)F (single isomer, unassigned) [Example 358]
IC50 ([3]; 48 hours): 250 nM | IC50 [2]: 55 nM

CN(C(=O)C1CCS(=O)(=O)C1)[C@@H](c1ccc(NC2Cc3ccc(Cl)c(Cl)c3C2)cn1)C(F)(F)F (single isomer, unassigned) [Example 360]
IC50 ([3]; 48 hours): 110 nM | IC50 [2]: 30 nM

CN(C(=O)C1CN(C(=O)C2COC2)C1)[C@@H](c1ccc(NC2Cc3ccc(Cl)c(F)c3C2)cn1)C(F)(F)F (single isomer, unassigned) [Example 371]
IC50 ([3]; Homo sapiens, Jurkat, 48 h): 220 nM | IC50 [2]: 75 nM

Cc1c(Cl)ccc2c1CC(Nc1ccc([C@H](N(C)C(=O)C3CCS(=O)(=O)CC3)C(F)(F)F)nc1)C2 (single isomer, unassigned) [Example 372]
IC50 ([3]; Homo sapiens, Jurkat, 48 h): 130 nM | IC50 [2]: 19 nM

CN(C(=O)[C@H]1C[C@H](O)C1)[C@@H](c1ccc(NC2Cc3ccc(Cl)c(F)c3C2)cn1)C(F)(F)F (single isomer, unassigned) [Example 374]
IC50 ([3]; Homo sapiens, Jurkat, 48 h): 230 nM | IC50 [2]: 50 nM

CC(=O)N1CC(C(=O)N(C)[C@@H](c2ccc(NC3Cc4ccc(Cl)c(Cl)c4C3)cn2)C(F)(F)F)C1 (single isomer, unassigned) [Example 377]
IC50 ([3]; Homo sapiens, Jurkat, 48 h): 130 nM | IC50 [2]: 40 nM

CN(C(=O)OC1CN(C(=O)OC(C)(C)C)C1)[C@@H](c1ccc(NC2Cc3ccccc3C2(C)C)cc1)C(F)(F)F (stereo partly drawn) [Example 59, tert-Butyl 3-((((1S)-1-(4-((1,1-dimethyl-2,3-dihydro-1H-inden-2-yl)amino)phenyl)-2,2,2-trifluoroethyl)(methyl)carbamoyl)oxy)azetidine-1-carboxylate]
IC50 [1]: 2710 nM

CN(C(=O)[C@@H]1CC(=O)N1)[C@@H](c1ccc(N[C@H]2Cc3ccccc3C2(C)C)cn1)C(F)(F)F [Example 165, (S)—N—((S)-1-(5-(((S)-1,1-Dimethyl-2,3-dihydro-1H-inden-2-yl)amino)pyridin-2-yl)-2,2,2-trifluoroethyl)-N-methyl-4-oxoazetidine-2-carboxamide]
IC50 ([3]; Homo sapiens, Jurkat, 48 h): 450 nM | IC50 [2]: 87 nM

CC(=O)N[C@H]1CC[C@@H](C(=O)N(C)[C@@H](c2ccc(N[C@H]3Cc4ccccc4C3(C)C)cn2)C(F)(F)F)C1 [Example 172, (1R,3S)-3-Acetamido-N—((S)-1-(5-(((S)-1,1-dimethyl-2,3-dihydro-1H-inden-2-yl)amino)pyridin-2-yl)-2,2,2-trifluoroethyl)-N-methylcyclopentane-1-carboxamide]
IC50 ([3]; Homo sapiens, Jurkat, 48 h): 490 nM | IC50 [2]: 71 nM

CNC(=O)C12CC(C(=O)N(C)[C@@H](c3ccc(N[C@H]4Cc5ccccc5C4(C)C)cn3)C(F)(F)F)(C1)C2 [Example 185, N^1—((S)-1-(5-(((S)-1,1-Dimethyl-2,3-dihydro-1H-inden-2-yl)amino)pyridin-2-yl)-2,2,2-trifluoroethyl)-N^1,N^3-dimethylbicyclo[1.1.1]pentane-1,3-dicarboxamide]
IC50 ([3]; Homo sapiens, Jurkat, 48 h): 300 nM | IC50 [2]: 42 nM

CC(=O)N[C@@H]1CC[C@H](C(=O)N(C)[C@@H](c2ccc(N[C@H]3Cc4ccccc4C3(C)C)cn2)C(F)(F)F)C1 [Example 187, (1,3-cis)-3-Acetamido-N—((S)-1-(5-(((S)-1,1-dimethyl-2,3-dihydro-1H-inden-2-yl)amino)pyridin-2-yl)-2,2,2-trifluoroethyl)-N-methylcyclobutane-1-carboxamide]
IC50 ([3]; Homo sapiens, Jurkat, 48 h): 450 nM | IC50 [2]: 94 nM

CN(C(=O)[C@H]1CC[C@@H](NS(C)(=O)=O)C1)[C@@H](c1ccc(N[C@H]2Cc3ccccc3C2(C)C)cn1)C(F)(F)F [Example 221, (1S,3R)—N—((S)-1-(5-(((S)-1,1-Dimethyl-2,3-dihydro-1H-inden-2-yl)amino)pyridin-2-yl)-2,2,2-trifluoroethyl)-N-methyl-3-(methylsulfonamido)cyclopentane-1-carboxamide]
IC50 ([3]; Homo sapiens, Jurkat, 48 h): 230 nM | IC50 [2]: 21 nM

CN(C(=O)C12CC(NS(C)(=O)=O)(C1)C2)[C@@H](c1ccc(N[C@H]2Cc3ccccc3C2(C)C)cn1)C(F)(F)F [Example 233, N—((S)-1-(5-(((S)-1,1-dimethyl-2,3-dihydro-1H-inden-2-yl)amino)pyridin-2-yl)-2,2,2-trifluoroethyl)-N-methyl-3-(methylsulfonamido)bicyclo[1.1.1]pentane-1-carboxamide]
IC50 ([3]; Homo sapiens, Jurkat, 48 h): 170 nM | IC50 [2]: 20 nM

CN(C(=O)[C@H]1CCC(=O)NC1)[C@@H](c1ccc(N[C@H]2Cc3ccc(Cl)cc3C2)cn1)C(F)(F)F [Example 297, (S)—N—((S)-1-(5-(((S)-5-Chloro-2,3-dihydro-1H-inden-2-yl)amino)pyridin-2-yl)-2,2,2-trifluoroethyl)-N-methyl-6-oxopiperidine-3-carboxamide]
IC50 ([3]; Homo sapiens, Jurkat, 48 h): 360 nM | IC50 [2]: 170 nM

CN(C(=O)C12CC(NS(C)(=O)=O)(C1)C2)[C@@H](c1ccc(N[C@H]2Cc3ccc(Cl)cc3C2)cn1)C(F)(F)F [Example 299, N—((S)-1-(5-(((S)-5-Chloro-2,3-dihydro-1H-inden-2-yl)amino)pyridin-2-yl)-2,2,2-trifluoroethyl)-N-methyl-3-(methylsulfonamido)bicyclo[1.1.1]pentane-1-carboxamide]
IC50 ([3]; Homo sapiens, Jurkat, 48 h): 430 nM | IC50 [2]: 94 nM
